Test results: article PMC5075052, “Modulation of the Substitution Pattern of 5-Aryl-2-Aminoimidazoles Allows Fine-Tuning of Their Antibiofilm Activity Spectrum and Toxicity” (Antimicrobial Agents and Chemotherapy, 2016)
Read-outs that look alike come from different tables or passages of the source.

Columns and labels:
S. aureus ATCC 6538 = test: Monospecies bacterial biofilm inhibition, static peg assay (Calgary device, crystal violet; planktonic OD600); format: cell-based, Staphylococcus aureus
Protocol: (§1) A static peg assay, described previously ([27], [74]), was used for bacterial biofilm formation. The Calgary biofilm device consists of a platform carrying 96 polystyrene pegs (Nunc no. 445497) that fits as a microtiter plate lid, with 1 peg hanging into each microtiter plate well (Nunc no. 269789). Twofold serial dilutions of the compounds (dissolved in 100% dimethyl sulfoxide [DMSO] or ethanol) in 100 μl liquid broth (TSB diluted 1/20) per well were prepared in the microtiter plate in duplicate or triplicate with a maximum concentration of 1,600 μM and a minimum concentration of 0.8 μM. Subsequently, an overnight culture of S. Typhimurium ATCC 14028, P. aeruginosa PA14, E. coli TG1, S. epidermidis, S. aureus SH1000, or S. aureus ATCC 6538 (all grown in LB) was diluted 1:100 into TSB diluted 1/20 (or TSB for S. epidermidis, S. aureus SH1000, and S. aureus ATCC 6538), whereas overnight cultures of S. liquefaciens MG44 and B. cepacia LMG1222T were diluted 1:50 into TSB diluted 1/20. P. gingivalis ATCC 33277 cultures were diluted in TSB diluted 1/20 to have a final concentration of 1 × 10^8 cells/ml. Next, 100 μl was added to each well of the microtiter plate, resulting in a total volume of 200 μl medium per well (final concentration range of compounds, 800 μM [2% DMSO or ethanol] to 0.4 μM [0.001% DMSO or ethanol]). In the next step, the pegged lid was placed on the microtiter plate and the plate was incubated for 24 h or 48 h at 25°C or 37°C without shaking. At 37°C, the plates were placed in a sealed container with wet towels on the bottom to prevent evaporation of the growth medium. Biofilms of P. gingivalis ATCC 33277 were grown anaerobically at 37°C for 72 h. During this incubation period, biofilms were formed on the surface of the pegs. After incubation, the optical density at 600 nm (OD600) for the planktonic cells in the microtiter plate was measured using a Synergy MX multimode reader (BioTek, Winooski, VT). This gives a first indication of the effect of the compounds on planktonic growth. For quantification of biofilm formation, the pegs were washed once in 200 μl PBS. The remaining attached bacteria were stained for 30 min with 200 μl 0.1% (wt/vol) crystal violet in an isopropanol-methanol-PBS solution (1:1:18, vol/vol). Excess stain was rinsed off by placing the pegs in a 96-well plate filled with 200 μl distilled water per well. After air drying of the pegs (30 min), the dye bound to the adherent biofilm was extracted with 30% glacial acetic acid (200 μl per well of a 96-well plate). The optical density at 570 nm (OD570) of each well was measured using a Synergy MX multimode reader (BioTek, Winooski, VT). The concentration of each compound needed to inhibit biofilm formation by 50% (BIC50) and the concentration of each compound needed to inhibit planktonic growth by 50% (IC50) were determined from the concentration gradient by using nonlinear curve fitting (GraphPad Prism software, version 5; GraphPad Software, Inc., La Jolla, CA). In the same assay, the effect on planktonic growth was evaluated. The activity was considered biofilm specific if the BIC50 was at least two times lower than the IC50. Data represent the means from at least 3 technical repeats with the corresponding 95% confidence intervals (provided in the supplemental material).

S. epidermidis = test: Monospecies bacterial biofilm inhibition, static peg assay; format: cell-based, Staphylococcus epidermidis; conditions: Staphylococcus epidermidis, 37°C
Protocol: as §1

E. coli TG1 = test: as above; format: cell-based, Escherichia coli; conditions: Escherichia coli
Protocol: as §1

S. liquefaciens MG44 = test: as above; format: cell-based, Serratia liquefaciens; conditions: Serratia liquefaciens
Protocol: as §1

[1] = tested on: E. coli TG1 + P. aeruginosa PA14; test: Mixed-species E. coli-P. aeruginosa biofilm assay (peg, crystal violet); format: cell-based, Escherichia coli + Pseudomonas aeruginosa
Protocol: Overnight cultures of E. coli TG1 and P. aeruginosa PA14 were diluted 1/100 in the same vial of TSB diluted 1/20 to form a mixed-culture suspension. Next, 2-fold serial dilutions of the compounds (dissolved in 100% DMSO or ethanol) in 100 μl liquid broth (TSB diluted 1/20) per well were prepared in the microtiter plate of the Calgary biofilm device (Nunc no. 269789) in duplicate or triplicate with a maximum concentration of 1,600 μM and a minimum concentration of 0.8 μM. One hundred microliters of the mixed-culture suspension was added to each well of the microtiter plate, resulting in a total volume of 200 μl medium per well (final concentration range of compounds, 800 μM [2% DMSO or ethanol] to 0.4 μM [0.001% DMSO or ethanol]). The pegged lid was placed on the microtiter plate, and the plate was incubated for 72 h at 37°C, which allowed biofilm formation on the pegs (Nunc no. 269789) of the Calgary biofilm device. After 72 h, the biofilm was colored with crystal violet as described above ([74]). The OD570 (biofilm cells) and OD600 (planktonic cells) were measured, and the BIC50 and the IC50, respectively, were calculated.

osteoblasts (OB) = test: Mammalian cell viability assay, trypan blue staining; format: cell-based; conditions: 12.5 μM, 6 days of exposure
Protocol: The viability of two human primary cell types, namely, osteoblasts (OB) and bone marrow-derived mesenchymal stem cells (MSC), was tested according to the ISO 10993-5 standard, as previously described ([76]). Briefly, cells were seeded in 96-well tissue culture test plates (TPP; Trasadingen, Switzerland) at 5 × 10^3 cells/cm^2 in cell culture medium (advanced Dulbecco modified Eagle's medium [DMEM]) supplemented with 10% serum, 1× GlutaMAX, and 0.05 mg/ml gentamicin and were allowed to attach overnight. On the next day, the cells were exposed to (i) cell culture medium and medium with the corresponding control (0.5% ethanol or DMSO; negative controls), (ii) medium with 0.05% phenol (cytotoxic control), and (iii) medium with compounds (12.5 μM) and incubated for 2 h, 48 h, and 6 days (8 repeats for each condition). At each time point, the numbers of viable and dead cells were determined directly by trypan blue staining and indirectly by measuring metabolic activity with 3-(4,5-dimethylthiazol-2-yl)-2,5-diphenyltetrazolium bromide (MTT) staining.
The medium was removed from the wells, 1/3 trypan blue in DMEM was added to the cells, and the cells were incubated for 3 min, after which the trypan blue was removed and DMEM was added to the wells. In each of four wells, two microscopy fields were counted for viable (transparent) and dead (blue) cells.

[2] = Staphylococcus aureus, ATCC6538, read-out: BIC50 (concentration needed to inhibit biofilm formation by 50%), S. aureus ATCC 6538, 37°C
[3] = Staphylococcus aureus, ATCC6538, read-out: IC50 (concentration needed to inhibit planktonic growth by 50%), S. aureus ATCC 6538, 37°C, planktonic OD600
[4] = read-out: IC50 (planktonic growth)
[5] = TG1, E. coli TG1, 37°C, read-out: BIC50
[6] = TG1, E. coli TG1, 37°C, read-out: IC50 (planktonic growth)
[7] = S. liquefaciens MG44, 25°C, read-out: BIC50
[8] = S. liquefaciens MG44, 25°C, read-out: IC50 (planktonic growth)
[9] = 72 h, mixed E. coli TG1 + P. aeruginosa PA14, 37°C, read-out: IC50 (planktonic growth)
[10] = 72 h, mixed E. coli TG1 + P. aeruginosa PA14 biofilm, 37°C, read-out: BIC50

CCCCCn1c(-c2ccccc2)cnc1N [Compound 1]
IC50 (S. aureus ATCC 6538; [2]): 59.3 µM | IC50 (S. aureus ATCC 6538; [3]): 231 µM | IC50 (S. epidermidis; read-out: BIC50): ~202 µM | IC50 (S. epidermidis; [4]): ~329 µM | IC50 (E. coli TG1; [5]): ~47.8 µM | IC50 (E. coli TG1; [6]): 34.1 µM | IC50 (S. liquefaciens MG44; [7]): 168 µM | IC50 (S. liquefaciens MG44; [8]): 177 µM | IC50 [1, 9]: 60.7 µM | IC50 [1, 10]: 74.3 µM

CCCCCCCCn1c(-c2ccc(Cl)cc2)cnc1N [Compound 2]
IC50 (S. aureus ATCC 6538; [2]): 2 to 6 µM | IC50 (S. aureus ATCC 6538; [3]): 7.8 µM | IC50 (S. aureus ATCC 6538; read-out: BIC50 (concentration needed to inhibit biofilm formation by 50%), S. aureus ATCC 6538, 37°C): 2.8 µM | IC50 (S. epidermidis; [4]): ~11.1 µM | IC50 (E. coli TG1; [5]): ~6.5 µM | IC50 (E. coli TG1; [6]): 7.7 µM | IC50 (S. liquefaciens MG44; [7]): 18.8 µM | IC50 (S. liquefaciens MG44; [8]): 38 µM | IC50 [1, 9]: 19.9 µM | IC50 [1, 10]: 36.8 µM

CC(C)CNc1ncc(-c2ccc(Cl)cc2)[nH]1 [Compound 3]
IC50 (S. aureus ATCC 6538; [2]): 95.3 µM | IC50 (S. aureus ATCC 6538; [3]): ~96.1 µM | IC50 (S. epidermidis; read-out: BIC50): > 400 µM | IC50 (S. epidermidis; [4]): 86.2 µM | IC50 (E. coli TG1; [5]): 110 µM | IC50 (E. coli TG1; [6]): 30 µM | IC50 (S. liquefaciens MG44; MG44, read-out: BIC50): 10.4 µM | IC50 (S. liquefaciens MG44; MG44, read-out: IC50 (planktonic growth)): 154 µM | IC50 [1, 9]: > 400 µM | IC50 [1, 10]: 7.4 µM

CCCCNc1ncc(-c2ccc(Br)cc2)[nH]1 [Compound 4]
IC50 (S. aureus ATCC 6538; [2]): ~12.3 µM | IC50 (S. aureus ATCC 6538; [3]): 60.1 µM | IC50 (S. epidermidis; read-out: BIC50): > 400 µM | IC50 (S. epidermidis; [4]): 54.4 µM | IC50 (E. coli TG1; [5]): 84.7 µM | IC50 (E. coli TG1; [6]): 23 µM | IC50 (S. liquefaciens MG44; [7]): 4.4 µM | IC50 (S. liquefaciens MG44; [8]): 118 µM | IC50 [1, 9]: > 400 µM | IC50 [1, 10]: 17.8 µM

Clc1ccc(-c2cnc(NC3CCCC3)[nH]2)cc1 [Compound 5]
IC50 (S. aureus ATCC 6538; [2]): 34.4 µM | IC50 (S. aureus ATCC 6538; [3]): 62.3 µM | IC50 (S. epidermidis; read-out: BIC50): > 400 µM | IC50 (S. epidermidis; [4]): 39.5 µM | IC50 (E. coli TG1; [5]): ~45.7 µM | IC50 (E. coli TG1; [6]): 17.1 µM | IC50 (S. liquefaciens MG44; [7]): 8.8 µM | IC50 (S. liquefaciens MG44; [8]): 125 µM | IC50 [1, 9]: > 400 µM | IC50 [1, 10]: 0.5 µM

Brc1ccc(-c2cnc(NCCn3cc(C4CC4)nn3)[nH]2)cc1 [Compound 6]
IC50 (S. aureus ATCC 6538; [2]): 75.2 µM | IC50 (S. aureus ATCC 6538; [3]): > 400 µM | IC50 (S. epidermidis; read-out: BIC50): > 400 µM | IC50 (S. epidermidis; [4]): > 400 µM | IC50 (E. coli TG1; [5]): ~192 µM | IC50 (E. coli TG1; [6]): 183 µM | IC50 (S. liquefaciens MG44; [7]): 63.3 µM | IC50 (S. liquefaciens MG44; [8]): > 400 µM | IC50 [1, 9]: > 400 µM | IC50 [1, 10]: 34.6 µM

CCCCCCCCn1c(-c2ccccc2)cnc1NCC(C)C [Compound 8a]
IC50 (S. aureus ATCC 6538; Staphylococcus aureus, ATCC6538, S. aureus ATCC 6538, 37°C, planktonic OD600, read-out: IC50 (concentration needed to inhibit planktonic growth by 50%)): 17.9 µM | IC50 (S. aureus ATCC 6538; Staphylococcus aureus, ATCC6538, S. aureus ATCC 6538, 37°C, read-out: BIC50 (concentration needed to inhibit biofilm formation by 50%)): ~22.9 µM | IC50 (E. coli TG1; TG1, E. coli TG1, 25°C, read-out: BIC50): ~47.2 µM | IC50 (E. coli TG1; TG1, E. coli TG1, 25°C, read-out: IC50 (planktonic growth)): 51.2 µM | IC50 (E. coli TG1; [5]): 41.2 µM | IC50 (E. coli TG1; [6]): 10.2 µM | IC50 ([1]; mixed E. coli TG1 + P. aeruginosa PA14, 37°C, read-out: IC50 (planktonic growth)): > 400 µM | IC50 ([1]; mixed E. coli TG1 + P. aeruginosa PA14 biofilm, 37°C, read-out: BIC50): 6.6 µM | proliferation of OB (trypan blue) (osteoblasts (OB)): slightly reduced
